The values below come from paper PMC2949700, “Identification of the full set of Listeria monocytogenes penicillin-binding proteins and characterization of PBPD2 (Lmo2812)” (BMC Microbiology, 2010).

Converted amounts (≈) assume the structure as drawn. Like-named read-outs stand apart in the source and are kept apart here.

The subject of test [1] is L. monocytogenes AD07 (Δlmo2812 Δlmo2754). The experiment in a line: Microdilution MIC test. It is filed as cell-based, Listeria monocytogenes. The protocol:
(§1) To determine the effect of these mutations on cell morphology, the strains EGD, KD2812 and DA07 were analyzed by scanning electron microscopy (SEM). […] At 30°C the average cell length compared to strain EGD was increased by 38.5% in strain KD2812 and by 44.8% in the double mutant strain. The respective values at 37°C were 37.5% and 43%. […] The variant cells were characteristically curved with a bend at either one or both ends and subterminal constrictions. The number of cells with altered morphology was increased as the growth temperature was raised (Figure 3; b, e, h). Cell bending was more pronounced in the population of AD07 mutant cells (Figure 3; c, f, i). […] Similar results were found for a mutant of L. monocytogenes lacking PBP5 (PBPD1) examined in a previous study.
(§2) Microdilution tests were performed using cation-adjusted Mueller-Hinton broth (CAMHB) supplemented with 5% lysed horse blood containing two-fold dilutions of the antimicrobial agents. These mixtures were dispensed in 100 μl aliquots into plastic 96-well plates. To prepare inocula, a single colony of each strain from a TSBYE plate was transferred into 10 ml of the same medium and incubated for 24 h at 37°C. These cultures were serially diluted in CAMHB to a concentration of 10^5 cfu/ml and 100 μl aliquots were added to the microdilution plates. The plates were incubated for 18-20 h at 37°C before the reading of the MIC endpoints. The MIC was the lowest antibiotic concentration at which visible growth was inhibited.
(Broth dilution looks for growth in wells or tubes with falling amounts of substance.)

The test system of test [2] is L. monocytogenes KD2812 (Δlmo2812). The experiment in a line: Microdilution MIC test. The format is cell-based, Listeria monocytogenes. How it is done: as §1, §2
The next test deals with L. monocytogenes EGD. Put plainly: Microdilution MIC test. The format is cell-based, Listeria monocytogenes. How it is done:
as §1, §2

In test [3] the target is purified recombinant Lmo2812 (PBPD2) (Listeria monocytogenes, UniProt Q8Y3M3). Put plainly: Fluorescent antibiotic binding assay, purified recombinant protein. Particulars: purified recombinant Lmo2812; antibiotic concentration for 50% of maximum binding; read-out: apparent affinity constant (Kd50). The protocol: The purified protein was incubated with different concentrations of Boc-FL (0.25, 0.5, 2.5, 5 and 10 μM). […] Lmo2812 was the major band on gels, with a slower migrating minor band thought to represent a dimeric form (Figure 2).
Figure 2 Purified recombinant L. monocytogenes Lmo2812 (PBPD2) identified with Boc-FL. Samples of purified recombinant Lmo2812 (10 μg) were labeled with Boc-FL at concentrations of 0 (1), 0.25 (2), 0.5 (3), 2.5 (4), 5 (5) and 10 μM (6). Labeled bands were detected directly on the gel, quantified and their molecular mass estimated. The affinity of the bands for Boc-FL (Kd50) was estimated from their fluorescence as a function of the concentration of Boc-FL. The names of the bands are indicated on the right, and the positions of the molecular weight markers are shown on the left.
The β-lactam binding capacity of Lmo2812 was evaluated with three different fluorescent antibiotics: Boc-FL, Boc-650 and Amp-430.
Total whole cell proteins or purified recombinant protein resuspended in 50 mM NaPi buffer, pH 7.0 were labeled by incubation at 37°C for 30 min with different concentrations of Boc-FL (Molecular Probes), Boc-650 (Molecular Probes) or Amp-430 (prepared in the laboratory by coupling ampicillin to Alexa-430), and then separated on a 10% acrylamide, 3.3% cross-linkage SDS-PAGE gel. To avoid degradation of the fluorescent β-lactam antibiotics by β-lactamases, samples were incubated at 37°C with clavulanic acid at a final concentration of 10 μg/ml or EDTA at a final concentration of 10 mM for 30 min before labeling, where appropriate. Competition experiments were carried out by preincubation of the samples with ampicillin (100 μg/ml) for 30 min at 37°C, before adding the fluorescent antibiotic. The samples were then further incubated for 30 min at 37°C. PBPs were visualized directly on the polyacryloamide gel by fluorescence using a Typhoon 9410 imager (Amersham Biosciences) with excitation wavelengths of 588, 633 or 457 nm and emission filters 520BP40, 670BP30 or 555BP20 for Boc-FL, Boc-650 and Amp-430, respectively. […]

In another test the test system is recombinant Lmo2812. The experiment in a line: Enzymatic activity assay with natural muropeptides. The format is biochemical, Listeria monocytogenes. Particulars: for M4 (%) / M5 (%): 120 min at 37°C, HPLC. The protocol:
No such cleavage occurred in the absence of Lmo2812.
The pH-dependence of the activity of Lmo2812 against monomeric muropepeptide M5 was determined in the pH range of 4.5 to 7.0. The highest activity was detected in assays performed at pH 7.0 in a Tris-Mg buffer, where half of the substrate was converted to the tetrapeptide (Table 3).
Whole total peptidoglycan and purified muropeptides were isolated from E. coli cells as described previously. A 10 μg sample of recombinant Lmo2812 was mixed with 5 μg of M5 (NAcGlc-NAcMur-pentapeptide) or D45 (NAcGlc-NAcMur-tetrapeptide-NAcGlc-NAcMur-pentapeptide) in a volume of 30 μl using three different buffer conditions: pH 4.5 (50 mM NaPi, 1% methanol, pH 4.5), pH 7.0 (30 mM Tris-HCl, 3 mM MgCl2, pH 7.0), or NaPi (50 mM sodium phosphate buffer, pH 7.0). These mixtures were incubated at 37°C for 120 min. Control samples of M5 or D45 without Lmo2812 were similarly incubated in 30 mM Tris-HCl buffer, 3 mM MgCl2, pH 7.0. The samples were analyzed by HPLC using a C18 reversed phase column and a methanol gradient to separate the peaks.

The subject of test [4] is purified recombinant Lmo2812. Put plainly: DD-carboxypeptidase activity assay with synthetic tripeptide. It is filed as biochemical, Listeria monocytogenes. Particulars: substrate up to 12.5 mM, 40 μg of purified protein. How it is done: The maximum activity was 0.75 pmoles/μg min, indicating low DD-carboxypeptidase activity under these assay conditions.
A modification of the method of Frere et al. was used for DD-carboxypeptidase activity measurement. A reaction mixture comprised of 15 μl of Nα,Nε-Diacetyl-Lys-D-Ala-D-Ala (25 mM), 3 μl of buffer (300 mM Tris-HCl pH 7.5) and 12 μl of purified recombinant Lmo2812 was prepared, incubated at 37°C and samples were taken every 10 min for 1 h. To these samples, 5 μl of 10 mg/ml (in methanol) o-Dianisidine (SIGMA) and 70 μl of enzyme/coenzyme mix (flavinadenine dinucleotide (FAD), Peroxidase and D-Amino acid Oxidase) were added. These mixtures were incubated at 37°C for 5 min, then 400 μl of methanol-water (v/v) was added and incubation continued at 37°C for another 2 min. The absorbance of each reaction was immediately read at 460 nm. A number of controls were performed: reactions containing only recombinant Lmo2812 fractions, reactions lacking recombinant Lmo2812 to establish the level of natural degradation of the tripeptide for at each sampling point, and standard samples containing known amounts of D-alanine.

The mark [5] stands for this setting: AD07 double mutant, CAMHB with 5% lysed horse blood, 18-20 h at 37°C.
Setting [6] is: KD2812 mutant, CAMHB with 5% lysed horse blood, 18-20 h at 37°C.
[7] abbreviates: EGD wild-type, CAMHB with 5% lysed horse blood, 18-20 h at 37°C.
Setting [8] is: Listeria monocytogenes, EGD wild-type, CAMHB with 5% lysed horse blood, 18-20 h at 37°C, read-out: MIC.

Chain of purified recombinant Lmo2812 (PBPD2) (Q8Y3M3 entry or part of it): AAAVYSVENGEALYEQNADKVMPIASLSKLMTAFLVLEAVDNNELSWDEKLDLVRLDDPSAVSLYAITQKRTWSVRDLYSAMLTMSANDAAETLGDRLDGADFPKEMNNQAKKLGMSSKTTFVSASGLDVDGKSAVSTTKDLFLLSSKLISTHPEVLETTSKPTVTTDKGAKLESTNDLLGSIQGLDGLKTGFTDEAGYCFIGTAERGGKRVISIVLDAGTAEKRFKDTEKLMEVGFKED

Consider penicillin, for which the MIC (in general, the lowest concentration found to suppress growth) in test [1] (setting [5]) was 0.08 µg/mL; in test [2] (setting [6]) it was 0.16 µg/mL; in the test on L. monocytogenes EGD (setting [7]) it was 0.16 µg/mL.

In the case of `CC(=O)OCC1=C(C(=O)O)N2C(=O)[C@@H](NC(=O)Cc3cccs3)[C@H]2SC1` [cefalotin], the MIC in the test with L. monocytogenes EGD (setting [8]) stood at 2 µg/mL (≈ 5.04 µM).

In the case of Bocillin-650 [Boc-650], the Kd in test [3] was determined as 2.8 µM.

As for `CC(C)(O/N=C(\C(=O)N[C@@H]1C(=O)N2C(C(=O)[O-])=C(C[n+]3ccccc3)CS[C@H]12)c1csc(N)n1)C(=O)O` [ceftazidime], the MIC (in test [1] (Listeria monocytogenes); in test [2] (Listeria monocytogenes); in the test with L. monocytogenes EGD (Listeria monocytogenes)) was 256 µg/mL (≈ 468 µM) each time.

With `CO/N=C(\C(=O)N[C@@H]1C(=O)N2C(C(=O)O)=C(COC(C)=O)CS[C@H]12)c1csc(N)n1` [cefotaxim], the MIC (in test [1] (setting [5]); in test [2] (setting [6]); against L. monocytogenes EGD (setting [7])) was 6 µg/mL (≈ 13.2 µM) each time.

For NAcGlc-NAcMur-pentapeptide [M5], the “M4 (%)” value in the test with recombinant Lmo2812 (Lmo2812, M5, NaPi, pH 7.0) was determined as 16%; in the test on recombinant Lmo2812 (Lmo2812, M5, Tris-Mg, pH 7.0), 48%; in the test with recombinant Lmo2812 (Lmo2812, M5, pH 4.5), 3%. For the same molecule, the “M5 (%)” value in the test with recombinant Lmo2812 (Lmo2812, M5, NaPi, pH 7.0) was determined as 84%; in the test on recombinant Lmo2812 (Lmo2812, M5, Tris-Mg, pH 7.0) it was 52%; in the test with recombinant Lmo2812 (Lmo2812, M5, pH 4.5), 97%.

As to `CCN1CCN(C(=O)N[C@@H](C(=O)N[C@@H]2C(=O)N3[C@@H]2SC(C)(C)[C@@H]3C(=O)O)c2ccccc2)C(=O)C1=O` [piperacillin], the MIC (in test [1] (Listeria monocytogenes); in test [2] (Listeria monocytogenes); against L. monocytogenes EGD (Listeria monocytogenes)) was 1.25 µg/mL (≈ 2.42 µM) throughout.

As for Nα,Nε-Diacetyl-Lys-D-Ala-D-Ala, the “maximum DD-carboxypeptidase activity” value in test [4] is 0.75 pmol/µg/min.

As for Ampicillin-Alexa430 [Amp-430], the Kd in test [3] was 18.5 µM.

With `Cc1onc(-c2ccccc2)c1C(=O)N[C@@H]1C(=O)N2[C@@H]1SC(C)(C)[C@@H]2C(=O)O` [oxacillin], the MIC in test [1] (Listeria monocytogenes) stood at 1.25 µg/mL (≈ 3.11 µM); in the test with L. monocytogenes EGD (setting [8]) it was 2.5 µg/mL (≈ 6.23 µM).

With `CO[C@@]1(NC(=O)Cc2cccs2)C(=O)N2C(C(=O)O)=C(COC(N)=O)CS[C@@H]21` [cefoxitin], the MIC (in test [1] (Listeria monocytogenes); in test [2] (Listeria monocytogenes); with L. monocytogenes EGD (Listeria monocytogenes)) was 32 µg/mL (≈ 74.9 µM) in each case.

Turning to “NAcGlc-NAcMur-tetrapeptide-NAcGlc-NAcMur-pentapeptide [D45]”, in the test with recombinant Lmo2812 (up to 100 μg of protein, up to 18 h), the “hydrolysis by purified Lmo2812” value is reported as “no such enzymatic activity was detected”.
